Consider 20 molecules from ChEMBL document CHEMBL5532634, “Oxazolidinone: A promising scaffold for the development of antibacterial drugs” (Eur J Med Chem, 2023).

For data set [1], the system named is Staphylococcus epidermidis. As to the kind of experiment: Antibacterial activity against Staphylococcus epidermidis ATCC 12228 assessed as reduction in bacterial growth measured after 24 hrs by broth microdilution method. It counts as functional. (Dilution methods test growth across graded concentrations, often in twofold steps.)
The test system of data set [2] is PC-3. In words: Inhibition of mitochondrial protein synthesis in human PC-3 cells at 100 uM incubated for 5 days. The settings on record: PC-3, 120 h. The data set is classed as functional, cell-based.
The subject of data set [3] is Mycobacterium tuberculosis. As to the kind of experiment: Antimycobacterial activity against Mycobacterium tuberculosis H37Rv assessed as reduction in bacterial growth incubated for 7 days by resazurin based assay. The conditions noted are these: 168 h, time 7 day. The data set is classed as functional. In general terms: Resazurin is reduced to fluorescent resorufin, in cell work by metabolically active cells.

Data set [4] concerns Staphylococcus aureus. In words: Antibacterial activity against Methicillin-resistant Staphylococcus aureus assessed as inhibition of bacterial growth. It counts as functional.
The subject of data set [5] is Staphylococcus aureus. As to the kind of experiment: Antibacterial activity against methicillin-susceptible Staphylococcus aureus assessed as inhibition of bacterial growth. It counts as functional.
Data set [6] is described as follows: Clearance in CF1 mouse. The data set is classed as ADME. The settings on record: in vivo.
Data set [7] concerns Staphylococcus aureus. As to the kind of experiment: Antibacterial activity against Methicillin-resistant Staphylococcus aureus assessed as reduction in microbial growth by Muller Hinton broth based dilution assay. It counts as functional.
Data set [8] has as its system Staphylococcus aureus. In words: In vivo antibacterial activity against Staphylococcus aureus UC9213 infected in PO dosed mouse assessed as reduction in bacterial infection measured after 6 days by hematoxylin and eosin staining based microscopic analysis. It counts as functional. The settings on record: UC9213, 144 h, time 6 day.
In data set [9] the test system is Staphylococcus aureus. In words: Antibacterial activity against Staphylococcus aureus UC9213 assessed as reduction in bacterial growth. It counts as functional.
For data set [10], the system named is MCF7. In words: Anticancer activity against human MCF7 cells assessed as inhibition of cell proliferation measured after 48 hrs by MTT assay. It counts as functional, cell-based. The conditions noted are these: MCF7, 48 h. Background: Tetrazolium assays rely on reduction of a dye to a coloured formazan, in cell work by metabolically active cells.
In data set [11] the test system is HT-29. In words: Anticancer activity against human HT-29 cells assessed as inhibition of cell proliferative measured after 48 hrs by MTT assay. The data set is classed as functional, cell-based. The settings on record: HT-29, 48 h.
Data set [12] relates to Staphylococcus aureus. As to the kind of experiment: Antibacterial activity against Staphylococcus aureus ATCC 29213 assessed as reduction in microbial growth measured after 24 hrs by broth microdilution analysis. The data set is classed as functional.
Data set [13] deals with Mycobacterium tuberculosis. In words: Antimycobacterial activity against Mycobacterium tuberculosis H37Rv assessed as reduction in bacterial cell growth by resazurin reduction method. The data set is classed as functional.
For data set [14], the system named is Staphylococcus aureus. As to the kind of experiment: Antibacterial activity against Staphylococcus aureus ATCC 25923 assessed as growth inhibition measured after 18 hrs by CLSI based method. It counts as functional.
For data set [15], the system named is Moraxella catarrhalis. As to the kind of experiment: Antibacterial activity against wild type Moraxella catarrhalis incubated for 20 hrs by two-fold serial dilution method. The data set is classed as functional.
In data set [16] the test system is Haemophilus influenzae. In words: Antibacterial activity against Haemophilus influenzae ATCC 49247 by broth microdilution method. It counts as functional.
Data set [17] relates to Streptococcus pneumoniae. As to the kind of experiment: Antibacterial activity against Streptococcus pneumoniae ATCC 49619 assessed as reduction in bacterial growth measured after 18 hrs by CLSI based analysis. It counts as functional.
Data set [18] concerns Streptococcus pyogenes. As to the kind of experiment: Antibacterial activity Streptococcus pyogenes ATCC 12344 assessed as reduction in microbial growth by broth microdilution method. It counts as functional.
For data set [19], the system named is Streptococcus pneumoniae. In words: Antibacterial activity against Streptococcus pneumoniae ATCC 49619 assessed as inhibition of bacterial growth measured after 24 hrs by MH broth based assay. The data set is classed as functional.
For data set [20], the system named is Staphylococcus aureus. As to the kind of experiment: Antibacterial activity against vancomycin-resistant Staphylococcus aureus clinical isolate 1 assessed as inhibition of bacterial growth by broth microdilution method. The data set is classed as functional.
Data set [21] deals with Staphylococcus aureus. In words: Antibacterial activity against methicillin-resistant Staphylococcus aureus ATCC 4330 assessed as reduction in microbial growth incubated for 18 hrs by broth microdilution method. The data set is classed as functional.
Data set [22] has as its system Enterococcus faecalis. As to the kind of experiment: Antibacterial activity against Enterococcus faecalis ATCC 29212 assessed as reduction in microbial growth after 24 hrs by two-fold serial dilution method. It counts as functional.
The subject of data set [23] is Staphylococcus epidermidis. In words: Antibacterial activity against methicillin-resistant Staphylococcus epidermidis ATCC 12228 assessed as reduction in microbial growth incubated for 18 hrs by broth microdilution method. It counts as functional.
The subject of data set [24] is Enterococcus faecium. In words: Antibacterial activity against Enterococcus faecium ATCC 19434 assessed as reduction in microbial growth after 24 hrs by two-fold serial dilution method. It counts as functional.
The subject of data set [25] is Bacillus subtilis. In words: Antibacterial activity against Bacillus subtilis ATCC 6633 assessed as inhibition of bacterial growth incubated for 24 hrs by CLSI based broth microdilution method. It counts as functional.
Data set [26] deals with Staphylococcus aureus. As to the kind of experiment: Antibacterial activity against Staphylococcus aureus ATCC 29213 assessed as bacterial growth inhibition incubated for 24 hrs by broth dilution method. It counts as functional.
Data set [27] has as its system Staphylococcus aureus. As to the kind of experiment: Antibacterial activity against methicillin-resistant Staphylococcus aureus ATCC 3300 assessed as reduction in microbial growth measured after 24 hrs by broth microdilution analysis. It counts as functional.

Molecules are shown by their SMILES. Values after ≈ are worked out from the molar mass of the structure shown.

Usually MIC stands for the smallest concentration in the dilution series that meets the test's criterion for growth inhibition. A word on the IC50: it is the concentration that gives 50% inhibition. What is called clearance is a measure of how efficiently the substance is removed, as volume per time. A lower clearance goes with inefficient removal. One may read the ED50 as the midpoint of the dose-response relation. In general, MIC50 refers to the lowest concentration that inhibits either 50% of growth or 50% of the strains tested, depending on the study.

For `O=C(CO)N1CC=C(c2ccc(N3C[C@H](COc4cnsn4)OC3=O)cc2F)CC1`, the minimum inhibitory concentration (MIC) in [1] turned out to be 0.13 µg/mL (≈ 0.299 µM).

With `COC(=O)NC[C@H]1CN(c2ccc(N3CC4(COC4)C3)c(F)c2)C(=O)O1` [TBI-223], the IC50 in data set [2] was greater than 74 µM. Also, in data set [3], the minimum inhibitory concentration (MIC) is 0.6 µg/mL (≈ 1.64 µM).

As for `CC(=O)NC[C@H]1CN(c2ccc(N3CCOCC3)c(F)c2)C(=O)O1` [LINEZOLID], the MIC in data set [4] and in data set [5] was 1 µg/mL (≈ 2.96 µM) in each case. In [6], this molecule had a clearance of 10.5 mL/min/kg.

Consider `Nc1cccc(S(=O)(=O)N2CCN(c3ccc(N4C[C@H](Cn5ccnn5)OC4=O)cc3F)CC2)c1`, for which the MIC in data set [7] amounted to 0.5 µg/mL.

As to `CC(=O)NC[C@H]1CC(c2ccc(C3=CCN(C(=O)CO)CC3)c(F)c2)=NO1`, in data set [8], the ED50 is 9.1 mg/kg. The MIC in [9] was 1 µg/mL (≈ 2.66 µM).

Take `O=C1NC2(CO1)O/C(=C\c1ccc(Cl)cc1)C(=O)N2CCCNc1ccnc2cc(Cl)ccc12` (centres undefined): the IC50 in data set [10] is 16.1 µM; in [11], 32.4 µM.

Take `O=C([C@H](O)CO)N1CC=C(c2c(F)cc(N3C[C@H](COc4ccon4)OC3=O)cc2F)CC1`: the MIC in data set [12] was 0.25 µg/mL.

Consider `CN1CCN(c2ccc(N3C[C@H](CO)OC3=O)cc2F)C=N1` [DELPAZOLID], for which, in data set [13], the MIC is 0.5 µg/mL (≈ 1.62 µM).

Turning to `CC(=O)NC[C@H]1CN(c2ccc(-c3ccc(CNCc4cnn[nH]4)cc3)c(F)c2)C(=O)O1` [RADEZOLID], the MIC in data set [14] came to 1 µg/mL (≈ 2.28 µM); in data set [17], 0.25 µg/mL (≈ 0.57 µM); in data set [18], 0.25 µg/mL. Further, the MIC90 in data set [15] stood at 0.5 µg/mL (≈ 1.14 µM); in [16], 1 µg/mL (≈ 2.28 µM).

Regarding `Cn1nnc(-c2ccc(-c3ccc(N4C[C@H](COP(=O)(O)O)OC4=O)cc3F)cn2)n1` [TEDIZOLID PHOSPHATE], the MIC in [19], in [20], in [22] and in data set [24] was 0.25 µg/mL each time. Further, the MIC50 in data set [21] was 0.12 µg/mL. For the same molecule, in [23], the MIC90 was determined as 0.12 µg/mL.

Take `CC(=O)NC[C@H]1CN(c2cnc(N3CCN(C(=O)/C=C/c4ccco4)CC3)c(F)c2)C(=O)O1`: the MIC in data set [25] stood at 4 µg/mL (≈ 8.74 µM).

On to `CO/C(S)=N\C[C@H]1CN(c2cc(F)c3c(c2)OC[C@@H]2CCCN32)C(=O)O1`, for which, in data set [26], the MIC turned out to be 0.5 µg/mL (≈ 1.31 µM).

As for `CC/C(S)=N\C[C@H]1CN(c2cc(F)c3c(c2)OC[C@@H]2CCCN32)C(=O)O1`, in data set [26], the MIC came to 0.5 µg/mL (≈ 1.32 µM).

For the molecule `O=C1O[C@@H](Cn2ccnn2)CN1c1ccc(N2CCN(S(=O)(=O)c3cccc(F)c3)CC2)c(F)c1`, the minimal inhibitory concentration (MIC) in data set [7] was determined as 0.5 µg/mL.

Take `O=C1O[C@@H](Cn2ccnn2)CN1c1ccc(N2CCN(S(=O)(=O)c3cccc(C(F)(F)F)c3)CC2)c(F)c1`: the minimal inhibitory concentration (MIC) in [7] worked out at 0.5 µg/mL.

In the case of `C[C@@H](O)C(=O)N1CC=C(c2c(F)cc(N3C[C@H](COc4ccon4)OC3=O)cc2F)CC1`, the MIC in [12] is 0.25 µg/mL.

For the molecule `CC(=O)NC[C@H]1CN(c2ccc(C3=CCOCC3)c(F)c2)C(=O)O1`, in [27], the minimal inhibitory concentration (MIC) was found to be 0.13 µg/mL.

As to `O=C1O[C@@H](Cn2ccnn2)CN1c1ccc(N2CCN(S(=O)(=O)c3cccc([N+](=O)[O-])c3)CC2)c(F)c1`, the MIC in data set [7] came to 0.5 µg/mL.

Take `O=C1O[C@@H](Cn2ccnn2)CN1c1ccc(N2CCN(S(=O)(=O)c3ccc(Cl)cc3)CC2)c(F)c1`: the MIC in [7] was found to be 0.5 µg/mL.

In the case of `C/C(S)=N\C[C@H]1CN(c2cc(F)c3c(c2)OC[C@@H]2CCCN32)C(=O)O1`, the MIC in [26] came to 0.5 µg/mL (≈ 1.37 µM).
